Where a name gives a salt, the structure may show the parent alone.
Tests used:
physchem = assay type: physicochemical; details: water
Experimental: Bei Anwendung von Ambroxol muß die Dosis 50 bis 100 mg betragen. Berücksichtigt man, daß Ambroxol nur in 1 %iger Lösung stabil ist und alle konzentrierteren Lösungen bei […] Temperaturen zur […], so zeigt dies, […] in der Praxis in einer Dosis von 5 bis 10 ml zur Anwendung kommen müßte, die völlig unrealistisch ist.

[1] = tested on: tracheobronchiales oder sinubronchiales Syndrom; details: inhalate in 1 %iger Emser Sole; patients who also had rhinitis needed additional cold remedies; cited from earlier work
Kaninchenauge = details: 1%-ige Ambroxol-HCL-Lösung; cited from earlier work

Nc1c(Br)cc(Br)cc1CN[C@H]1CC[C@H](O)CC1 [Ambroxol, trans-4-[(2-Amino-3,5-dibrom-benzyl)-amino]cyclohexanol]
solubility (physchem): ≤ 10000 µg/mL | Wirksamkeit bei Patienten mit tracheobronchialem oder sinubronchialem Syndrom [1]: wirksam

Nc1c(Br)cc(Br)cc1CN[C@H]1CC[C@H](O)CC1 [Ambroxol-HCL]
Reizung des Kaninchenauges (Kaninchenauge): keine Reizung
